≈ marks a conversion by molar mass, not a printed value.
What was measured:
Assay in all cases: Antibacterial effectiveness in agar
Format in all cases: cell-based
[1] = test system: Bacteroides fragilis BC4; conditions: in agar; Bacteroides fragilis BC4; read-out: M.I.C.
From the text: (§1) b. Antibacterial effectiveness of the compound of […]

[2] = test system: Bacteroides fragilis VP1 8249; conditions: VP18249; in agar; Bacteroides fragilis VP1 8249; read-out: M.I.C.
From the text: as §1

[3] = test system: Bacteroides fragilis WS12; conditions: in agar; Bacteroides fragilis WS12; read-out: M.I.C.
From the text: as §1

[4] = test system: Bacteroides fragilis WS1; conditions: in agar; Bacteroides fragilis WS1; read-out: M.I.C.
From the text: as §1

[5] = test system: Bacteroides fragilis WS41; conditions: in agar; Bacteroides fragilis WS41; read-out: M.I.C.
From the text: as §1

[6] = test system: Citrobacter freundii T221; conditions: in agar; Citrobacter freundii T221; read-out: M.I.C.
From the text: as §1

[7] = test system: Enterbacter aerogenes NCTC 10006; conditions: in agar; Enterbacter aerogenes NCTC 10006; read-out: M.I.C.
From the text: as §1

[8] = test system: Enterbacter aerogenes T660; conditions: in agar; Enterbacter aerogenes T660; read-out: M.I.C.
From the text: as §1

[9] = test system: Enterobacter cloacea T749; conditions: in agar; Enterobacter cloacea T749; read-out: M.I.C.
From the text: as §1

[10] = test system: Escherichia coli Ba78R+; conditions: in agar; Escherichia coli Ba78R+; read-out: M.I.C.
From the text: as §1

[11] = test system: Escherichia coli E8; conditions: in agar; Escherichia coli E8; read-out: M.I.C.
From the text: as §1

[12] = test system: Escherichia coli E96R+
From the text: as §1

[13] = test system: Escherichia coli JT1; conditions: in agar; Escherichia coli JT1; read-out: M.I.C.
From the text: as §1

[14] = test system: Escherichia coli JT20R+
From the text: as §1

[15] = test system: Escherichia coli JT414C+; conditions: in agar; Escherichia coli JT414C+; read-out: M.I.C.
From the text: as §1

[16] = test system: Escherichia coli NCTC 15418; conditions: NCTC15418; in agar; Escherichia coli NCTC 15418; read-out: M.I.C.
From the text: as §1

[17] = test system: Klebsiella aerogenes I281; conditions: in agar; Klebsiella aerogenes I281; read-out: M.I.C.
From the text: as §1

[18] = test system: Klebsiella aerogenes R112; conditions: in agar; Klebsiella aerogenes R112; read-out: M.I.C.
From the text: as §1

[19] = test system: Klebsiella aerogenes T219; conditions: in agar; Klebsiella aerogenes T219; read-out: M.I.C.
From the text: as §1

[20] = test system: Klebsiella aerogenes Va2R+; conditions: in agar; Klebsiella aerogenes Va2R+; read-out: M.I.C.
From the text: as §1

[21] = test system: Proteus mirabilis 889; conditions: in agar; Proteus mirabilis 889; read-out: M.I.C.
From the text: as §1

[22] = test system: Proteus mirabilis T318; conditions: in agar; Proteus mirabilis T318; read-out: M.I.C.
From the text: as §1

[23] = test system: Proteus morganii I; conditions: Morganella morganii; in agar; Proteus morganii I; read-out: M.I.C.
From the text: as §1

[24] = test system: Proteus morganii T361; conditions: Morganella morganii; in agar; Proteus morganii T361; read-out: M.I.C.
From the text: as §1

[25] = test system: Proteus rettgeri R110; conditions: Providencia rettgeri; in agar; Proteus rettgeri R110; read-out: M.I.C.
From the text: as §1

[26] = test system: Proteus vulgaris NCTC 4395; conditions: NCTC4395; in agar; Proteus vulgaris NCTC 4395; read-out: M.I.C.
From the text: as §1

[27] = test system: Proteus vulgaris X; conditions: in agar; Proteus vulgaris X; read-out: M.I.C.
From the text: as §1

[28] = test system: Pseudomonas aeruginosa Dalgleish; conditions: in agar; Pseudomonas aeruginosa Dalgleish; read-out: M.I.C.
From the text: as §1

[29] = test system: Pseudomonas aeruginosa W975; conditions: in agar; Pseudomonas aeruginosa W975; read-out: M.I.C.
From the text: as §1

[30] = test system: Serratia marcescens SM27; conditions: in agar; Serratia marcescens SM27; read-out: M.I.C.
From the text: as §1

[31] = test system: Serratia marcescens Wo146; conditions: in agar; Serratia marcescens Wo146; read-out: M.I.C.
From the text: as §1

[32] = test system: Staphylococcus aureus ATCC 25923; conditions: ATCC25923; in agar; Staphylococcus aureus ATCC 25923; read-out: M.I.C.
From the text: as §1

[33] = test system: Staphylococcus aureus ME9+; conditions: in agar; Staphylococcus aureus ME9+; read-out: M.I.C.
From the text: as §1

[34] = test system: Staphylococcus aureus Smith; conditions: in agar; Staphylococcus aureus Smith; read-out: M.I.C.
From the text: as §1

[35] = test system: Staphylococcus aureus T150+; conditions: in agar; Staphylococcus aureus T150+; read-out: M.I.C.
From the text: as §1

[36] = test system: Staphylococcus aureus T67+; conditions: in agar; Staphylococcus aureus T67+; read-out: M.I.C.
From the text: as §1

[37] = test system: Streptococcus faecalis C90; conditions: Enterococcus faecalis; in agar; Streptococcus faecalis C90; read-out: M.I.C.
From the text: as §1

CC(=O)N/C=C/SC1=C(C(=O)O)N2C(=O)[C@@H]([C@H](C)OS(=O)(=O)O)[C@H]2C1 [MM 13902, reference compound]
MIC [1]: 1.6 µg/mL (≈ 4.08 µM) | MIC [2]: 0.2 µg/mL (≈ 0.51 µM) | MIC [3]: 0.2 µg/mL (≈ 0.51 µM) | MIC [4]: 6.2 µg/mL (≈ 15.8 µM) | MIC [5]: 0.4 µg/mL (≈ 1.02 µM) | MIC [6]: 6.2 µg/mL (≈ 15.8 µM) | MIC [7]: 0.4 µg/mL (≈ 1.02 µM) | MIC [8]: 0.4 µg/mL (≈ 1.02 µM) | MIC [9]: 12.5 µg/mL (≈ 31.9 µM) | MIC [10]: 0.8 µg/mL (≈ 2.04 µM) | MIC [11]: ≤ 0.1 µg/mL | MIC [12]: 0.2 µg/mL (≈ 0.51 µM) | MIC [13]: ≤ 0.1 µg/mL | MIC [14]: 1.6 µg/mL (≈ 4.08 µM) | MIC [15]: 0.4 µg/mL (≈ 1.02 µM) | MIC [16]: ≤ 0.1 µg/mL | MIC [17]: 0.2 µg/mL (≈ 0.51 µM) | MIC [18]: 0.2 µg/mL (≈ 0.51 µM) | MIC [19]: ≤ 0.1 µg/mL | MIC [20]: 6.2 µg/mL (≈ 15.8 µM) | MIC [21]: 0.2 µg/mL (≈ 0.51 µM) | MIC [22]: ≤ 0.1 µg/mL | MIC [23]: 0.2 µg/mL (≈ 0.51 µM) | MIC [24]: 0.2 µg/mL (≈ 0.51 µM) | MIC [25]: 0.2 µg/mL (≈ 0.51 µM) | MIC [26]: 0.1 µg/mL (≈ 0.255 µM) | MIC [27]: 0.4 µg/mL (≈ 1.02 µM) | MIC [28]: 50 µg/mL (≈ 127 µM) | MIC [29]: 50 µg/mL (≈ 127 µM) | MIC [30]: 1.6 µg/mL (≈ 4.08 µM) | MIC [31]: 3.1 µg/mL (≈ 7.9 µM) | MIC [32]: 1.6 µg/mL (≈ 4.08 µM) | MIC [33]: 3.1 µg/mL (≈ 7.9 µM) | MIC [34]: 1.6 µg/mL (≈ 4.08 µM) | MIC [35]: 1.6 µg/mL (≈ 4.08 µM) | MIC [36]: 0.8 µg/mL (≈ 2.04 µM) | MIC [37]: 6.2 µg/mL (≈ 15.8 µM)

From patent US4473578A, “β-Lactam antibiotics and their use” (Beecham Group Limited, priority 1979, dated 1984)
